This is an account of results in patent US8778876B2, “Small-molecule inhibitors of Dengue and West Nile virus proteases” (The Board of Regents of the University of Texas System, priority 2011, dated 2014).

For orientation: solubility means the dissolved amount per volume that the medium holds.

Read-outs that look alike come from different tables or passages of the source.

One series in a line: physchem. The settings on record: pH 9, aqueous with cosolvent or surfactant or cyclodextrin, kinetic from dmso stock.
A further series concerns the target WNV NS2B-NS3pro (West Nile virus, UniProt P06935). In words: Steady-state kinetics of inhibitors of WNV NS2B-NS3pro. It is filed as biochemical.
The next series has as its target DEN2V NS2B-NS3pro (Dengue virus type 2, UniProt Q91H74). In words: Steady-state kinetics of inhibitors of DEN2V NS2B-NS3pro (Boc-GRR-AMC substrate, Dynafit). It is filed as biochemical, Dengue 2 virus. The settings on record: for Mechanism: HTS-identified hits.
The mark [1] stands for this setting: Ki1 (from biochemical protease inihibition experiments) West Nile virus NS2B-NS.
[2] abbreviates: Ki1 (from biochemical protease inihibition experiments) Dengue 2 virus NS2B-NS3.
Where [3] appears, read: Table 2, WNV NS2B-NS3pro, read-out: Ki1.
Where [4] appears, read: Table 2, WNV NS2B-NS3pro, read-out: Ki2.
Where [5] appears, read: Table 1, DEN2V NS2B-NS3pro, read-out: Ki1.
Where [6] appears, read: Table 1, DEN2V NS2B-NS3pro, read-out: Ki2.

WNV NS2B-NS3pro, sequence (P06935 1502-1679 limits assumed): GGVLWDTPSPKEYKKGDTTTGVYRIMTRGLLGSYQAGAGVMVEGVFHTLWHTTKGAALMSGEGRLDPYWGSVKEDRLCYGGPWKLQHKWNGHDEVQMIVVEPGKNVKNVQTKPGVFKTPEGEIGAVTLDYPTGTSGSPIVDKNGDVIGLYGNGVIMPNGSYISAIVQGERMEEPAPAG
WNV NS2B-NS3pro, sequence (P06935 1424-1463 partner limits assumed): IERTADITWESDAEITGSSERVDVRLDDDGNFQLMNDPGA
DEN2V NS2B-NS3pro, sequence (Q91H74 entry or part of it, added parts left off): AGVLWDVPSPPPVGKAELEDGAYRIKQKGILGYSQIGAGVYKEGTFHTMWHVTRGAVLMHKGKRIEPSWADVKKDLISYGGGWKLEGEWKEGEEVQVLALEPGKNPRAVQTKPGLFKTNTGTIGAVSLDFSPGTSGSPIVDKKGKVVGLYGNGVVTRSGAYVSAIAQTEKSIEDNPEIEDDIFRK
DEN2V NS2B-NS3pro, sequence (Q91H74 entry or part of it partner, added parts left off): as the sequence (Q91H74 entry or part of it, added parts left off) above

In the series “physchem”, `O=[N+]([O-])c1ccc(OP(=O)([O-])Oc2ccc([N+](=O)[O-])cc2)cc1.[Na+]` [Compound 6A24] returned a solubility of under 10 µM.

On to `Nc1cccc2c1C(=O)c1ccccc1C2=O` [Compound 6A25], for which the solubility in the series “physchem” is under 10 µM. Same read-out and setting: then `Nc1ccc2c(c1)C(=O)c1ccccc1C2=O` [Compound 6A27], with under 10 µM; and `Cc1ccc2c(c1)C(=O)c1ccccc1C2=O` [Compound 6A28], with under 10 µM.

As to `O=c1[nH]c2cc([N+](=O)[O-])c([N+](=O)[O-])cc2[nH]c1=O` [Compound 6A29], in the series “physchem”, the solubility is under 10 µM. The same measure, in the same setting: then `O=C1c2cccc(O)c2C(=O)c2cccc(O)c21` [Compound 6A30], with under 10 µM; and `Nc1ccc2c(c1[N+](=O)[O-])C(=O)c1ccccc1C2=O` [Compound 6A35], with under 10 µM. Take `O=[N+]([O-])c1cc([N+](=O)[O-])c2ccccc2c1[O-].[Na+]` [Compound 6A40]: in the series “physchem”, the solubility is under 10 µM. The same measure, in the same setting: the same measure for `Cc1cccc2c1C(=O)c1cccc([N+](=O)[O-])c1C2=O` [Compound 6A41]: under 10 µM. As for `COc1ccc(N)c2c1C(=O)c1ccccc1C2=O` [Compound 6A46], the solubility in “physchem” was over 10 µM. On the same count and under the same terms, then `CN/N=C1/c2ccccc2C(=O)c2c(O)ccc(O)c21` [Compound 6A48], with over 10 µM.

In the case of `O=Cc1ccc2c(c1)C(=O)c1ccccc1C2=O` [Compound 6A50], the solubility in the series “physchem” is over 10 µM.

For the molecule `Nc1ccc(O)c2ccccc12` [Compound 6A51], the solubility in “physchem” is over 10 µM.

In the series “physchem”, `Nc1c(Br)cc(O)c2c1C(=O)c1ccccc1C2=O` [Compound 6A53] registered a solubility of under 10 µM.

In the case of `O=c1ccc2[n+]([O-])c3ccc(O)cc3oc-2c1` [Compound 9A3], the Ki came out at 72 µM on WNV NS2B-NS3pro (setting [1]) and 82 µM on DEN2V NS2B-NS3pro (setting [2]). As for `CN(C)c1ccc2nc3ccc(=O)cc-3sc2c1` [Compound 9A4], the Ki was found to be 431 µM on WNV NS2B-NS3pro (setting [1]) and 359 µM on DEN2V NS2B-NS3pro (setting [2]). On to `CCN(CC)c1ccc2nc3c4ccccc4c(=O)cc-3oc2c1` [Compound 9A6], for which the Ki on WNV NS2B-NS3pro (setting [1]) was 47 µM; at DEN2V NS2B-NS3pro (setting [2]) it was 53 µM.

Consider `CC[C@H](C)[C@H]1O[C@]2(CC[C@@H]1C)C[C@@H]1C[C@@H](C/C=C(\C)[C@@H](O[C@H]3C[C@H](OC)[C@@H](O[C@H]4C[C@H](OC)[C@@H](O)[C@H](C)O4)[C@H](C)O3)[C@@H](C)/C=C/C=C3\CO[C@@H]4[C@H](O)C(C)=C[C@@H](C(=O)O1)[C@]34O)O2` [MS21, Ivermectin, reference compound], for which the Mechanism entry is listed as “Mixed” at WNV NS2B-NS3pro (Table 2, WNV NS2B-NS3pro) and “Mixed” at DEN2V NS2B-NS3pro (Table 1, DEN2V NS2B-NS3pro). Moreover, the Ki was found to be 55 ± 18 µM at WNV NS2B-NS3pro (setting [3]), 16 ± 4 µM on WNV NS2B-NS3pro (setting [4]), 79 ± 21 µM at DEN2V NS2B-NS3pro (setting [5]) and 35 ± 4 µM at DEN2V NS2B-NS3pro (setting [6]).

Consider `Cc1cc(C(C)(C)CC(C)(C)C)ccc1OCCOCC[N+](C)(C)Cc1ccccc1.[Cl-]` [MS22, Methylbenzethonium chloride, reference compound], for which the Mechanism result at WNV NS2B-NS3pro (Table 2, WNV NS2B-NS3pro) is “Mixed”; at DEN2V NS2B-NS3pro (Table 1, DEN2V NS2B-NS3pro), “Mixed”. Also, the Ki on WNV NS2B-NS3pro (setting [3]) worked out at 141 ± 20 µM; at WNV NS2B-NS3pro (setting [4]), 307 ± 80 µM; at DEN2V NS2B-NS3pro (setting [5]), 322 ± 81 µM; on DEN2V NS2B-NS3pro (setting [6]), 160 ± 39 µM. `CO[C@H]1C[C@H](O[C@@H]2/C(C)=C/C[C@@H]3C[C@@H](C[C@]4(CC[C@H](C)[C@@H](C5CCCCC5)O4)O3)OC(=O)[C@@H]3C=C(C)/C(=N/O)[C@H]4OC/C(=C\C=C\[C@@H]2C)[C@]43O)O[C@@H](C)[C@@H]1O` [MS24, Selamectin, reference compound]: the Ki stood at 15 ± 9 µM on WNV NS2B-NS3pro (Ki1, Table 2, WNV NS2B-NS3pro); 28 ± 6 µM at WNV NS2B-NS3pro (Ki2, Table 2, WNV NS2B-NS3pro); 63 ± 18 µM at DEN2V NS2B-NS3pro (Ki1, Table 1, DEN2V NS2B-NS3pro); 45 ± 8 µM on DEN2V NS2B-NS3pro (Ki2, Table 1, DEN2V NS2B-NS3pro). In addition, the Mechanism entry was “Mixed” on WNV NS2B-NS3pro (Table 2, WNV NS2B-NS3pro) and “Mixed” on DEN2V NS2B-NS3pro (Table 1, DEN2V NS2B-NS3pro).
